Test results from US9469674B2 (HAINAN UNIVERSITY, dated 2016).
Where a SMILES comes first, the peptide text is derived from it. Bridges are numbered along the chain shown (N, C = ends). Where no end group is shown, it is not given here.

Legend:
α2β4 nAChR = α2β4 nAChR (Rattus norvegicus, UniProt P12389+P12392); experiment: cell-based; type: cell-based
α7 nAChR = α7 nAChR (Rattus norvegicus, UniProt Q05941); experiment: cell-based; type: cell-based
α4β2 nAChR = α4β2 nAChR (Rattus norvegicus, UniProt P09483+P12390); experiment: cell-based
human α6/α3β2β3 nAChR = human α6/α3β2β3 nAChR (Homo sapiens, UniProt P17787+P32297+Q15825); experiment: cell-based; type: cell-based
α6/α3β4 nAChR = α6/α3β4 nAChR (Rattus norvegicus, UniProt P04757+P12392+P43143); experiment: cell-based; type: cell-based
α6/α3β4 nAChR, sequence (P04757 whole entry, looked up): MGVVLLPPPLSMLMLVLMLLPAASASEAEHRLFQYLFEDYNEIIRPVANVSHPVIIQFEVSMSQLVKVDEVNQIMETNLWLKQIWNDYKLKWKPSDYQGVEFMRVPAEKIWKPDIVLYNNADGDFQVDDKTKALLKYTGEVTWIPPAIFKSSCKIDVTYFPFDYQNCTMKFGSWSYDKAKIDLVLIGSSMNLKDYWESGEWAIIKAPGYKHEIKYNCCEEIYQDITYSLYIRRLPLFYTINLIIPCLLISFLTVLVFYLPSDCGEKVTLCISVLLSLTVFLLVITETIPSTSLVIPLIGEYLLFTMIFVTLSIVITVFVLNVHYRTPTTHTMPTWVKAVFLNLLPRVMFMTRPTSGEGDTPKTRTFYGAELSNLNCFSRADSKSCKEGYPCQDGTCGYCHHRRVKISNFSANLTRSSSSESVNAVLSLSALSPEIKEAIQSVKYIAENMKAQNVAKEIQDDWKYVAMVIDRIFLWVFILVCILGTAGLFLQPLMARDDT
α6/α3β4 nAChR, sequence (P12392 whole entry, looked up): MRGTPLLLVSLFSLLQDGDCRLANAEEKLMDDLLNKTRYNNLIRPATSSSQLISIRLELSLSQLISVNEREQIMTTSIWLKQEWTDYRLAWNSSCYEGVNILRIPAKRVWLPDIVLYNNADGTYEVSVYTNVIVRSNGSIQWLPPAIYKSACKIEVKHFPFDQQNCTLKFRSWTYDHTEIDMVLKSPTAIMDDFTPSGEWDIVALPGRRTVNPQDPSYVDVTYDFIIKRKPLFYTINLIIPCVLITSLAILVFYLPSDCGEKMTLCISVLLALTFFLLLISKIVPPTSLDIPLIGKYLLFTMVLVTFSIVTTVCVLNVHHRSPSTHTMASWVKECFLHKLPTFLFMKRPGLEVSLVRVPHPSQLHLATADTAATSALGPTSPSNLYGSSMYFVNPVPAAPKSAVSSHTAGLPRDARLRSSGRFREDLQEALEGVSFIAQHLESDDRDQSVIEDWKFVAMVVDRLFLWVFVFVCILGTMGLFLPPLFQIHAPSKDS
α6/α3β4 nAChR, sequence (P43143 whole entry, looked up): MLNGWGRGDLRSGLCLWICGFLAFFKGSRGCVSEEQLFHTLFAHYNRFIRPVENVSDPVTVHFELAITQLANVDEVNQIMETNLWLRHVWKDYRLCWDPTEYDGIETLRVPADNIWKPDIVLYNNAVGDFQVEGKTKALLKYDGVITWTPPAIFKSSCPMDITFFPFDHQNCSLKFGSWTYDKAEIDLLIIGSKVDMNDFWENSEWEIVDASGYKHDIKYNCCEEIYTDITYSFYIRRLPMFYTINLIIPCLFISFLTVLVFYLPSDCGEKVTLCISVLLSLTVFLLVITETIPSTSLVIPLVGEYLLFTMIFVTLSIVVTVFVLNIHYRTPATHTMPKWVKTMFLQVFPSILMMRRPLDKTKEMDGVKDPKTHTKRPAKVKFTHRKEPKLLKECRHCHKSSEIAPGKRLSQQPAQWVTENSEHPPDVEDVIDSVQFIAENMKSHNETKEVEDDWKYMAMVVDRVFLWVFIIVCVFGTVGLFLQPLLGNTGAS

α3β4 nAChR = α3β4 nAChR (Rattus norvegicus, UniProt P04757+P12392); experiment: cell-based; type: cell-based
α6/α3β2β3 nAChR = α6/α3β2β3 nAChR (Rattus norvegicus, UniProt P04757+P12390+P43143); experiment: cell-based; type: cell-based
α6/α3β2β3 nAChR, sequence (P04757 whole entry, looked up): as the sequence (P04757 whole entry, looked up) above
α6/α3β2β3 nAChR, sequence (P12390 whole entry, looked up): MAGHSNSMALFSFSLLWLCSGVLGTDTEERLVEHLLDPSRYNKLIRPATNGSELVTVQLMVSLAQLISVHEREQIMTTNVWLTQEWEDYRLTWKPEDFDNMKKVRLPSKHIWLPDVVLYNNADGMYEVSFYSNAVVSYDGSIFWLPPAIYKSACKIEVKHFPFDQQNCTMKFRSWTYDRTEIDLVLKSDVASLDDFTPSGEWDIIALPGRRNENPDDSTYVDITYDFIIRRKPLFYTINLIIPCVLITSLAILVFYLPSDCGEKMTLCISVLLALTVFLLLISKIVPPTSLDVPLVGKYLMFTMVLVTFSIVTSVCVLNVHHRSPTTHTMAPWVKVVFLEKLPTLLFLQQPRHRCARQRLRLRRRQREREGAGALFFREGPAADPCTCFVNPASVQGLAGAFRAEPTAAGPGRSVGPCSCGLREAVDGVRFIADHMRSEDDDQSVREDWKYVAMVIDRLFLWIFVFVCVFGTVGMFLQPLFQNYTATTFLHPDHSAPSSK
α6/α3β2β3 nAChR, sequence (P43143 whole entry, looked up): as the sequence (P43143 whole entry, looked up) above

α3β2 nAChR = α3β2 nAChR (Rattus norvegicus, UniProt P04757+P12390); experiment: cell-based; type: cell-based; conditions: IC50 (half-blocking dose)
α4β4 nAChR = α4β4 nAChR (Rattus norvegicus, UniProt P09483+P12392); experiment: cell-based; type: cell-based
α2β2 nAChR = α2β2 nAChR (Rattus norvegicus, UniProt P12389+P12390); experiment: cell-based; type: cell-based
α9α10 nAChR = α9α10 nAChR (Rattus norvegicus, UniProt P43144+Q9JLB5); experiment: cell-based
[1] = target: α6/α3β4 acetylcholine receptor; conditions: read-out: half-blocking dose IC50; cited from earlier work
[2] = target: α3β2 acetylcholine receptor (Homo sapiens, UniProt P17787+P32297); conditions: read-out: half-blocking dose IC50; cited from earlier work
α3β2 acetylcholine receptor, sequence (P32297 32-505 limits assumed): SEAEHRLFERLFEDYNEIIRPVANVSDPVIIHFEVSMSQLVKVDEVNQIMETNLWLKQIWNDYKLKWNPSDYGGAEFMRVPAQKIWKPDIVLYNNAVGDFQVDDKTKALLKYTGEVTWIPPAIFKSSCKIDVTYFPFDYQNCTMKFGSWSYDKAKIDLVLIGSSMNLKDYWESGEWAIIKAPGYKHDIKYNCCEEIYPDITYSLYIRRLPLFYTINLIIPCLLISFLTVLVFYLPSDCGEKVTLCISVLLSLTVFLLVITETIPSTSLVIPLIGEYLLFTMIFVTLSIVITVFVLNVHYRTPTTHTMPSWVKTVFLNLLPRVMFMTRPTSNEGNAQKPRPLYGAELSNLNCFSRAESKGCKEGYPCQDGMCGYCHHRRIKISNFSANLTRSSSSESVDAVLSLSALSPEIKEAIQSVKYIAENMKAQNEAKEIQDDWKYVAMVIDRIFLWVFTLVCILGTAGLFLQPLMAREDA
α3β2 acetylcholine receptor, sequence (P17787 26-502 limits assumed): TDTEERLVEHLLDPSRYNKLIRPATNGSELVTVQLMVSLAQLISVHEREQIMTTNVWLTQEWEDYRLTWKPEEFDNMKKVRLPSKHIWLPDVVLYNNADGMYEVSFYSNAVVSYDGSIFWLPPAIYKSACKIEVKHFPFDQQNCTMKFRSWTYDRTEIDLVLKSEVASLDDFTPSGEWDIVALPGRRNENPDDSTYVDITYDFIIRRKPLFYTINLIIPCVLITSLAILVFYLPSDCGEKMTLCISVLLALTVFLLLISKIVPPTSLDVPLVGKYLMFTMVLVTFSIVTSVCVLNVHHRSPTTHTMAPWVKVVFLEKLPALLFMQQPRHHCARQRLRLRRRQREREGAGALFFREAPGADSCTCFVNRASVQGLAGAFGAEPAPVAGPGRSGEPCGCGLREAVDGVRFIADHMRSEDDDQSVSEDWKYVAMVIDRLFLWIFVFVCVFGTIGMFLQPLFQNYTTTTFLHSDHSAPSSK

[3] = target: α6/α3β2β3 acetylcholine receptor; conditions: read-out: half-blocking dose IC50; cited from earlier work
[4] = target: α9α10 acetylcholine receptor (Homo sapiens, UniProt Q9GZZ6+Q9UGM1); conditions: read-out: half-blocking dose IC50; cited from earlier work
α9α10 acetylcholine receptor, sequence (Q9UGM1 26-479 limits assumed): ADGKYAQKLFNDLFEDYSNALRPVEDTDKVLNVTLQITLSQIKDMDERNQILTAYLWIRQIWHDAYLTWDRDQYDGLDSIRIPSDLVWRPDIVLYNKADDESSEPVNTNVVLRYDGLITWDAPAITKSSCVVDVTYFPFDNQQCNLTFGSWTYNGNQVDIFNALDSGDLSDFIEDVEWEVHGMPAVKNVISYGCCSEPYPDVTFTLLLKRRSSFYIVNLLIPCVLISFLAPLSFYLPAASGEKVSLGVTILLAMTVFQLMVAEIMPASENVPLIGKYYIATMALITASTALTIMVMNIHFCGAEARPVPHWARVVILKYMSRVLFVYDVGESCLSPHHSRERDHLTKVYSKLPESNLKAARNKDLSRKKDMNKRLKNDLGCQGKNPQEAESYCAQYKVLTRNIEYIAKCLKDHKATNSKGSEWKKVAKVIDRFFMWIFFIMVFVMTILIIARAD
α9α10 acetylcholine receptor, sequence (Q9GZZ6 25-450 limits assumed): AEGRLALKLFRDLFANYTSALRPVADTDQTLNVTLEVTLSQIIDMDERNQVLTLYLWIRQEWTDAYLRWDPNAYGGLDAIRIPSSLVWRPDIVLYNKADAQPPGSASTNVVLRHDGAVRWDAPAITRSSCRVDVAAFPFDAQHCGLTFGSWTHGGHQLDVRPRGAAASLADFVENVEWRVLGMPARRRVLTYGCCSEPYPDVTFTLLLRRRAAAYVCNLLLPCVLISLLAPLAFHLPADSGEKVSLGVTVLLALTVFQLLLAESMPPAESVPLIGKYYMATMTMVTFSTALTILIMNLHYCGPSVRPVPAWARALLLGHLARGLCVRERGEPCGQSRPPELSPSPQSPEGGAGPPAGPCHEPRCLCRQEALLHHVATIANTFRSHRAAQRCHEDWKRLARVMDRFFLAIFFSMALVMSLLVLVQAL

[5] = target: α7 acetylcholine receptor (Homo sapiens, UniProt P36544); conditions: read-out: half-blocking dose IC50; cited from earlier work
α7 acetylcholine receptor, sequence (P36544 23-502 limits assumed): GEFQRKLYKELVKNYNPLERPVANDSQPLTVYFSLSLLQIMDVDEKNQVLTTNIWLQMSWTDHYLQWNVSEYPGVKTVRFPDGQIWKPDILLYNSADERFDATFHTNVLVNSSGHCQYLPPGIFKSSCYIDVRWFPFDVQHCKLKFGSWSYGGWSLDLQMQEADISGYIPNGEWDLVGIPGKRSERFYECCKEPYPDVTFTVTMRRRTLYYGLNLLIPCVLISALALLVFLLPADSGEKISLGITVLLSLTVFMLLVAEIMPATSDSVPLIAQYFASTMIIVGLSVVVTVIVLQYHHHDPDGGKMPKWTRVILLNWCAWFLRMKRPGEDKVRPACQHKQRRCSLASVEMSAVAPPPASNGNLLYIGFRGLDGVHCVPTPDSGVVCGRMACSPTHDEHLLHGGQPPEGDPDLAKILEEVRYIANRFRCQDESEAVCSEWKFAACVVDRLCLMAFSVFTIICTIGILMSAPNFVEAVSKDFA

[6] = target: α3β4 acetylcholine receptor; conditions: read-out: half-blocking dose IC50; cited from earlier work
rat α4β2 nAChR = rat α4β2 nAChR (rat, UniProt P09483); experiment: cell-based or functional assay
rat α2β4 nAChR = rat α2β4 nAChR (rat, UniProt P12389); experiment: cell-based or functional assay
rat α3β4 nAChR = rat α3β4 nAChR (rat, UniProt P04757); experiment: cell-based or functional assay
rat α9α10 nAChR = rat α9α10 nAChR (rat, UniProt P43144); experiment: cell-based or functional assay
rat α3β2 nAChR = rat α3β2 nAChR (rat, UniProt P04757); experiment: cell-based or functional assay
rat α2β2 nAChR = rat α2β2 nAChR (rat, UniProt P12389); experiment: cell-based or functional assay
rat α4β4 nAChR = rat α4β4 nAChR (rat, UniProt P09483); experiment: cell-based or functional assay
rat α7 nAChR = rat α7 nAChR (rat, UniProt Q05941); experiment: cell-based or functional assay
rat α6/α3β4 nAChR (rat) = rat α6/α3β4 nAChR (rat) (UniProt P12392)
[7] = target: rat α6/α3β2β3 nAChR (rat) (UniProt P12390)

α7 nAChR, sequence (Q05941 23-502 limits assumed): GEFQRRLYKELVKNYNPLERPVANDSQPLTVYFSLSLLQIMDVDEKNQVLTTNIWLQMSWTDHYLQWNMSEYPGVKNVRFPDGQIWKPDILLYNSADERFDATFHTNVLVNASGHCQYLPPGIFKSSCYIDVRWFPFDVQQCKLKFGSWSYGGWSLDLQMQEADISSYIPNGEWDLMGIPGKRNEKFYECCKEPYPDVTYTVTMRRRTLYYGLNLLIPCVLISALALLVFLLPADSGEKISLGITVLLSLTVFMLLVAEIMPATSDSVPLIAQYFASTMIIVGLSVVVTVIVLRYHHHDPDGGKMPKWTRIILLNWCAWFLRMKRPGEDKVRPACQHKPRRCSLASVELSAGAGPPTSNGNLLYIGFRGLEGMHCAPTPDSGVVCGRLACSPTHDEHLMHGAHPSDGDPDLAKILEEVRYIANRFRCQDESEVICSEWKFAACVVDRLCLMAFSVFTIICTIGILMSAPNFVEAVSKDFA

Molecule: CC(C)C[C@@H]1NC(=O)[C@H](CC(=O)O)NC(=O)[C@@H]2CCCN2C(=O)[C@H](Cc2c[nH]cn2)NC(=O)[C@H](CCCCN)NC(=O)[C@H](CC(N)=O)NC(=O)[C@H](CCCNC(=N)N)NC(=O)[C@@H]2CSSC[C@H](NC(=O)CN)C(=O)N[C@@H](CSSC[C@@H](C(=O)NCC(N)=O)NC1=O)C(=O)N[C@@H](CO)C(=O)N[C@@H](CC(=O)O)C(=O)N1CCC[C@H]1C(=O)N1CCC[C@H]1C(=O)N2 [TxIB(G)] (H-GCCSDPPCRNKHPDLCG-NH2; disulfide 2-8, 3-16)
- IC50 (α2β4 nAChR): > 10 µM
- IC50 (α7 nAChR): > 10 µM
- IC50 (α4β2 nAChR): > 10 µM
- blocking activity on human α6/α3β2β3 nAChR (human α6/α3β2β3 nAChR): blocking activity similar to those for rat α6/α3β2β3 nAChR
- IC50 (α6/α3β4 nAChR): > 10 µM
- IC50 (α3β4 nAChR): > 10 µM
- IC50 (α6/α3β2β3 nAChR): 0.247 µM
- Ratio of half-blocking dose (IC50) between TxIB(G) and TxIB (α6/α3β2β3 nAChR): 8.7
- IC50 (α3β2 nAChR): > 10 µM
- IC50 (α4β4 nAChR): > 10 µM
- IC50 (α2β2 nAChR): > 10 µM
- IC50 (α9α10 nAChR): > 10 µM

Molecule: CC(C)C[C@@H]1NC(=O)[C@H](CC(=O)O)NC(=O)[C@@H]2CCCN2C(=O)[C@H](Cc2cnc[nH]2)NC(=O)[C@H](CCCCN)NC(=O)[C@H](CC(N)=O)NC(=O)[C@H](CCCNC(=N)N)NC(=O)[C@@H]2CSSC[C@H](NC(=O)CN)C(=O)N[C@@H](CSSC[C@@H](C(N)=O)NC1=O)C(=O)N[C@@H](CO)C(=O)N[C@@H](CC(=O)O)C(=O)N1CCC[C@H]1C(=O)N1CCC[C@H]1C(=O)N2 [TxIB] (H-GCCSDPPCRNKHPDLC-NH2; disulfide 2-8, 3-16)
- IC50 (α2β4 nAChR): > 10 µM
- IC50 (α7 nAChR): > 10 µM
- IC50 (α4β2 nAChR): > 10 µM
- IC50 (α6/α3β4 nAChR): > 10 µM
- IC50 (α3β4 nAChR): > 10 µM
- IC50 (α6/α3β2β3 nAChR): 0.0284 µM
- IC50 (α3β2 nAChR): > 10 µM
- IC50 (α4β4 nAChR): > 10 µM
- IC50 (α2β2 nAChR): > 10 µM
- IC50 (α9α10 nAChR): > 10 µM

Molecule: GCCSDPRCNYDHPEIC* [Vc1.1]
- IC50 [1]: 0.98 µM
- IC50 [2]: 7.3 µM
- IC50 [3]: 0.14 µM
- IC50 [4]: 0.019 µM

Molecule: GCCSHPACNVNNPHIC* [RegIIA]
- IC50 [5]: 0.103 µM
- IC50 [6]: 0.097 µM
- IC50 [2]: 0.033 µM

Molecule: GCCSHPACSVNHPELC* [PeIA]
- IC50 [5]: 1.8 µM
- IC50 [6]: 0.48 µM
- IC50 [2]: 0.023 to 0.0975 µM
- IC50 [4]: 0.0069 to 0.0549 µM

Molecule: GCCSYPPCFATNP-DC* [AuIB]
- IC50 [6]: 0.75 µM

Molecule: RDPCCSNPVCTVHNPQIC* [PIA]
- IC50 [1]: 0.0126 to 0.0305 µM
- IC50 [6]: 0.518 µM
- IC50 [2]: 0.0742 µM
- IC50 [3]: 0.001 to 0.0017 µM

B1: α-conotoxin TxIB/Txd4(G) (peptide)
peptide: GCCSDPPCRNKHPDLCG
modifications: not fully specified; ends and bridges not checked
- IC50 (half-blocking dose) on ACh-gated current (rat α4β2 nAChR): > 10 µM
- IC50 (half-blocking dose) on ACh-gated current (rat α2β4 nAChR): > 10 µM
- IC50 (half-blocking dose) on ACh-gated current (rat α3β4 nAChR): > 10 µM
- IC50 (half-blocking dose) on ACh-gated current (rat α9α10 nAChR): > 10 µM
- IC50 (half-blocking dose) on ACh-gated current (rat α3β2 nAChR): > 10 µM
- IC50 (half-blocking dose) on ACh-gated current (rat α2β2 nAChR): > 10 µM
- IC50 (half-blocking dose) on ACh-gated current (rat α4β4 nAChR): > 10 µM
- IC50 (half-blocking dose) on ACh-gated current (rat α7 nAChR): > 10 µM
- IC50 (half-blocking dose) on ACh-gated current (rat α6/α3β4 nAChR (rat)): > 10 µM
- IC50 (half-blocking dose) on ACh-gated current [7]: 0.247 µM

B2: α-conotoxin TxIB/Txd4 (peptide)
peptide: GCCSDPPCRNKHPDLC
modifications: not fully specified; ends and bridges not checked
- IC50 (half-blocking dose) on ACh-gated current (rat α4β2 nAChR): > 10 µM
- IC50 (half-blocking dose) on ACh-gated current (rat α2β4 nAChR): > 10 µM
- IC50 (half-blocking dose) on ACh-gated current (rat α3β4 nAChR): > 10 µM
- IC50 (half-blocking dose) on ACh-gated current (rat α9α10 nAChR): > 10 µM
- IC50 (half-blocking dose) on ACh-gated current (rat α3β2 nAChR): > 10 µM
- IC50 (half-blocking dose) on ACh-gated current (rat α2β2 nAChR): > 10 µM
- IC50 (half-blocking dose) on ACh-gated current (rat α4β4 nAChR): > 10 µM
- IC50 (half-blocking dose) on ACh-gated current (rat α7 nAChR): > 10 µM
- IC50 (half-blocking dose) on ACh-gated current (rat α6/α3β4 nAChR (rat)): > 10 µM
- IC50 (half-blocking dose) on ACh-gated current [7]: 0.0284 µM
